Results taken from US20100292292A1, “Treatment of Neurodegenerative Diseases Using Indatraline Analogs” (LINK MEDICINE CORPORATION, priority 2007, published 2010).
“Also recorded” adds a separate entry of the source.

Assays:
[1] = target: T1, purified recombinant human α-synuclein (Homo sapiens, UniProt P37840); experiment: α-synuclein structure formation/aggregation in the presence of HFIP (Thioflavin T fluorescence, fluorescence polarization); assay type: binding; settings: α-synuclein 20 μM, 25 mM Tris pH 8.0, 3.1% HFIP, room temperature, compound 50-400 μM, Thioflavin T fluorescence and/or fluorescence polarization
Protocol: HFIP induces rapid structure formation and aggregation of α-synuclein (Munishkina et al., Biochemistry 42:2720-30, 2003; Maiti, Apetri et al., J Am Chem Soc, 126:2399-408, 2004; each of which is incorporated herein by reference). Compounds were incubated with purified recombinant human α-synuclein (20 μM) in a buffer containing HFIP (25 mM Tris, pH 8.0, 3.1% HFIP) at room temperature. Structure formation was monitored by Thioflavin T fluorescence and fluorescence polarization. Thioflavin T fluorescence can be used to measure aggregation of amyloidogenic proteins, including α-synuclein (excitation, 440 nm; emission, 495 nm) (Naiki et al., Anal. Biochem., 177:244-9, 1989; Conway et al., Biochemistry, 39:2552-63, 2000; each of which is incorporated herein by reference). Average molecular size was monitored by fluorescence polarization using human α-synuclein covalently conjugated to Alexa Fluor 594 (excitation, 546 nm; emission, 620 nm). Assays were performed in a 384-well plate and readings taken directly from each well over time.

[2] = system: α-synuclein-induced retinal degeneration in transgenic Drosophila (human A30P α-synuclein); experiment: Drosophila retinal assay; assay type: in vivo; settings: transgenic Drosophila expressing human A30P α-synuclein in retina, drug in food
Source text: Human A30P α-synuclein expression was directed to the retina with the glass multimer reporter (GMR) promoter. The transgene induces progressive retinal degeneration. Dry food (Formula 4-24; Carolina Biological Supply) was rehydrated with water or an aqueous solution of drug. Drug concentration refers to the final concentration of compound in the aqueous solution. Transgenic female flies less than 12-hours-old were placed on either untreated or drug-embedded food. For analysis of retinal degeneration, fly heads were annealed to a glass microscope, then eyes were transilluminated following optical neutralization of the corneas with immersion oil and examined under a 100× lens (Franceschini, N., Pupil and pseudopupil in the compound eye of Drosophila. In Information processing in the visual system of Drosophila, Wehner, R., Ed. Springer: Berlin, 1972; pp 75-82; incorporated here in by reference). For quantitation, 20-50 ommatidia per eye of at least 12 eyes were examined per group. The percent normal ommatidia was calculated for each eye and averaged for each sample set. Indatraline suppressed α-synuclein-induced retinal degeneration (FIG. 26A).

[3] = system: dopaminergic neurons (primary rat embryonic midbrain culture) infected with lentivirus encoding human A53T α-synuclein; experiment: Primary neuronal toxicity assay; assay type: cell-based; settings: for decrease of α-synuclein neurotoxicity in dopaminergic neurons (TH+ cells): E17 rat midbrain culture, A53T α-synuclein lentivirus, 3 days treatment
Source text: Indatraline decreased α-synuclein neurotoxicity in dopaminergic neurons. Midbrain cultures will be prepared from E17 rat ventral mesencephalon as described in a published protocol (Xu, J.; Kao, S. Y.; Lee, F. J.; Song, W.; Jin, L. W.; Yankner, B. A., Dopamine-dependent neurotoxicity of alpha-synuclein: a mechanism for selective neurodegeneration in Parkinson disease. Nat Med 2002, 8, (6), 600-6; incorporated herein by reference). Cultured cells were infected with a recombinant lentivirus encoding human A53T α-synuclein (A53T) or a control virus (none). Cells were treated with various concentrations of indatraline (black bars) for 3 days. Cells were then fixed and immunostained for Microtubule-associated protein 2, which stains all neurons, and Tyrosine Hydroxylase, a marker for dopaminergic neurons. Toxicity of A53T α-synuclein toward dopaminergic neurons was determined by calculating the percentage neurons positive for tyrosine hydroxylase (TH^+ cells).

[4] = target: alpha-synuclein (Homo sapiens, UniProt P37840); experiment: Solution NMR binding studies
Source text: Importantly, stabilization of such off-pathway conformers can reduce the rate of α-synuclein fibrillization. For instance, sequence changes that promote formation of helical conformers also reduce the rate of α-synuclein fibrillization. A novel screen was devised to identify small molecules capable of promoting off-pathway conformers of α-synuclein. A screen of 640 central nervous system (CNS-active) compounds, including many approved CNS drugs, identified an active compound, indatraline (INDAT), a monoamine reuptake inhibitor that has been widely used as a research tool.

[5] = target: T1, purified recombinant human α-synuclein; experiment: α-synuclein aggregation in aqueous solution (Thioflavin T fluorescence, fluorescence polarization); assay type: biochemical; settings: α-synuclein 70 μM, 20 mM Bis-tris propane pH 7.4, 100 mM LiCl, 37° C., gentle agitation, Thioflavin T fluorescence and/or fluorescence polarization
Protocol: Compounds were incubated with purified recombinant human α-synuclein (70 μM) in an aqueous buffer system (20 mM Bis-tris propane, pH 7.4, 100 mM LiCl) at 37° C. with gentle agitation. Structure formation was monitored by Thioflavin T fluorescence and/or fluorescence polarization. Thioflavin T fluorescence can be used to measure aggregation of amyloidogenic proteins, including α-synuclein (excitation, 440 nm; emission, 495 nm) (Naiki, H.; Higuchi, K.; Hosokawa, M.; Takeda, T., Fluorometric determination of amyloid fibrils in vitro using the fluorescent dye, thioflavin T1. Anal Biochem 1989, 177, (2), 244-9; incorporated herein by reference). Average molecular size was monitored by fluorescence polarization using human α-synuclein covalently conjugated to Alexa Fluor 594 (excitation, 546 nm; emission, 620 nm) (Luk, K. C.; Hyde, E. G.; Trojanowski, J. Q.; Lee, V. M., Sensitive fluorescence polarization technique for rapid screening of alpha-synuclein oligomerization/fibrillization inhibitors. Biochemistry 2007, 46, (44), 12522-9; incorporated herein by reference).

SMILES	binding to α-synuclein and effect on the rate of structure formation/aggregation in the presence of HFIP [1]	binding to α-synuclein and effect on the rate of structure formation/aggregation in the presence of HFIP ([1]; listed as indatraline)	suppression of α-synuclein-induced retinal degeneration (percent normal ommatidia) [2]	suppression of α-synuclein-induced retinal degeneration (percent normal ommatidia) ([2]; listed as indatraline)	decrease of α-synuclein neurotoxicity in dopaminergic neurons (TH+ cells) [3]	decrease of α-synuclein neurotoxicity in dopaminergic neurons (TH+ cells) ([3]; listed as indatraline)	IC50 ([3]; Neuron, primary rat embryonic midbrain culture, FIG. 26B, read-out: IC50, reduction of alpha-synuclein toxicity in dopaminergic neurons) [nM]	binding site on alpha-synuclein by solution NMR [4]	delay of α-synuclein aggregation in aqueous solution [5]	delay of α-synuclein aggregation in aqueous solution ([5]; listed as indatraline)
CN(C)C1CC(Cc2ccc(Cl)c(Cl)c2)c2ccccc21 (stereo not drawn) [LNK-122]	binds to α-synuclein and affects the rate of structure formation; also recorded: bind to α-synuclein and affect the rate of protein aggregation	–	–	–	–	–	–	–	–	–
c1ccc(CNCC2CC(c3ccccc3)c3ccccc32)cc1 (stereo not drawn) [LNK-1521]	bind to α-synuclein and affect the rate of protein aggregation	–	–	–	–	–	–	–	–	–
CN[C@@H]1C[C@@H](c2ccc(Cl)c(Cl)c2)c2ccccc21 [Indatraline, indatraline]	bind to α-synuclein and affect the rate of protein aggregation	binds to α-synuclein and affects the rate of structure formation	suppresses α-synuclein-induced retinal degeneration; also recorded: decreases α-synuclein-mediated retinal degeneration	reduced the toxicity of alpha-synuclein; also recorded: suppress α-synuclein-induced retinal degeneration	diminished toxicity of A53T α-synuclein toward dopaminergic neurons in a dose-dependent manner; also recorded: decreases α-synuclein neurotoxicity	reduced the toxicity of alpha-synuclein; also recorded: decrease α-synuclein neurotoxicity	~500	binds at a sequence near the C-terminus of alpha-synuclein	delay the initiation of α-synuclein aggregation	reduced the rate of alpha-synuclein fibrillization (and nucleation); also recorded: delays aggregation of α-synuclein in a dose-dependent manner
